The test system of one assay is BMC. The assay can be described thus: BMC migration towards SDF-1, modified Boyden chamber assay. Particulars: inhibitor added to upper chamber along with treated BMC; p<0.05. It is filed as cell-based, mouse. On the procedure:
BMC migration towards SDF-1 was determined using a modified Boyden chamber assay. BMC were pre-incubated with either PBS or the invented solution for 4 hours at 37 deg.C. and transferred to the upper chamber of inserts in a 24-well plate containing DMEM and 100 ng/ml SDF-1. Migrated cells were counted after 6 hrs incubation at 37° C. Inhibitors AMD3100, LY294002, L-NMMA, and anti-CXCR4 antibody were added to the upper chamber along with BMC.

Assay [1] deals with mice after surgical implementation of hindlimb ischemia. The assay can be described thus: Homing of injected GFP BMC to ischemic hindlimb muscle. The following applies: SDF-1 protein 100 ng injected into ischemic hindlimb muscle; treated and untreated cells. The class given is in vivo, mouse. On the procedure:
SDF1 protein was also injected into the ischemic hindlimb muscle to enhance BMC homing. SDF-1 protein (100 ng) was injected into the ischemic hindlimb muscle of WT BL6 mice twice at consecutive days after the surgery. The hindlimb muscles were recovered 7 days after the cell injection, stained with DAPI for nucleus (light white), and examined for GFP cells (bright white, arrow pointed) incorporation under fluorescent microscopy. (A) untreated BMC, B) Treated BMC, C) Untreated BMC+SDF-1, D) Treated BMC+SDF-1. E) The incorporated GFP cells were quantified as cells per high power field (HPF). *P<0.05, and **P<0.01 versus all other groups (n=6).

In the case of `c1cc(CN2CCCNCCNCCCNCC2)ccc1CN1CCCNCCNCCCNCC1` [AMD3100], the “mobility of the treated BMC on addition of inhibitor” value in the assay with BMC is recorded as “significantly reduced”.
As to “SDF-1: stromal cell derived factor-1, chemotactic cytokine, protein injected into ischemic hindlimb muscle”, in assay [1], the “effect of exogenous SDF-1 on homing of injected BMC” value is “homed more efficiently”.
Take `CNC(=N)NCCC[C@H](N)C(=O)O` [L-NNMA]: the “mobility of the treated BMC on addition of inhibitor” value in the assay on BMC was “significantly reduced”.

The record behind these values is US20120014926A1, “Activation of Precursor Cells for Cell Therapy” (priority 2009, published 2012).
